Assay results taken from ChEMBL document CHEMBL1143011, “NMR screening applied to the fragment-based generation of inhibitors of creatine kinase exploiting a new interaction proximate to the ATP binding site” (J Med Chem, 2007).

How the values were obtained:
[1] = target: Creatine kinase M-type (Oryctolagus cuniculus) (UniProt P00563); test: Inhibition of rabbit muscle creatine kinase at 27.5 uM in presence of 400 uM MgATP
Creatine kinase M-type [2] = target: T1, Creatine kinase M-type (Oryctolagus cuniculus, UniProt P00563); test: Inhibition of rabbit muscle creatine kinase-MgATP complex by pH-stat assay
T1 sequence (P00563 whole entry): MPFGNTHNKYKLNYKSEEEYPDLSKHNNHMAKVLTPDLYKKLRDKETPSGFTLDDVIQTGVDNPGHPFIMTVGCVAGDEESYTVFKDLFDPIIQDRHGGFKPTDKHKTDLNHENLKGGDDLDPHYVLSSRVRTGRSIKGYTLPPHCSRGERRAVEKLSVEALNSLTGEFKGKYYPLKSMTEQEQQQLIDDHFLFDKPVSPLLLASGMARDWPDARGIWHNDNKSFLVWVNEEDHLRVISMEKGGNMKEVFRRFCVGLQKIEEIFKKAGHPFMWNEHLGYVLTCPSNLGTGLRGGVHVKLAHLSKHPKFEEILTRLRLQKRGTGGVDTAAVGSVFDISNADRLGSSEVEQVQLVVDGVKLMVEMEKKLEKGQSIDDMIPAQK

Creatine kinase M-type [3] = target: T1, Creatine kinase M-type; test: Inhibition of rabbit muscle creatine kinase by pH-stat assay

Sequence of Creatine kinase M-type (Oryctolagus cuniculus) (P00563 whole entry): as above

inhibition [1] [%] | Ki (Creatine kinase M-type [2]) [µM] | IC50 (Creatine kinase M-type [3]) [µM] | Ki (Creatine kinase M-type [3]) [µM] | SMILES
63 |  |  |  | O=C(NCc1ccc(-c2ccccc2)cc1)c1ccc(-c2ccc(C(=O)O)o2)cc1
35 | 70 | 50 | 25 | O=C(Nc1ccc(C(=O)c2ccccc2)cc1)c1ccc(-c2ccc(C(=O)O)o2)cc1
20 |  |  |  | O=C(NCc1ccccc1)c1ccc(-c2ccc(C(=O)O)o2)cc1
63 |  |  |  | O=C(c1ccccc1)c1ccc(-c2ccc(-c3ccc(C(=O)O)o3)cc2)cc1
